Assay [1] in a line: Inhibition of recombinant human SNEP1 H529A mutant (419 to 644 residues) expressed in Escherichia coli (DE3) cells using RanGAP-SUMO2 substrate preincubated for 10 mins followed by substrate addition and measured after 25 min by Coomassie blue staining based SDS-PAGE analysis.
Assay [2] can be described thus: Inhibition of recombinant human SNEP1 F496A mutant (419 to 644 residues) expressed in Escherichia coli (DE3) cells using RanGAP-SUMO2 substrate preincubated for 10 mins followed by substrate addition and measured after 25 min by Coomassie blue staining based SDS-PAGE analysis.
A short description of assay [3]: Inhibition of recombinant human SNEP1 W465A mutant (419 to 644 residues) expressed in Escherichia coli (DE3) cells using RanGAP-SUMO2 substrate preincubated for 10 mins followed by substrate addition and measured after 25 min by Coomassie blue staining based SDS-PAGE analysis.
The nature of assay [4]: Inhibition of recombinant human SNEP1 K455A mutant (419 to 644 residues) expressed in Escherichia coli (DE3) cells using RanGAP-SUMO2 substrate preincubated for 10 mins followed by substrate addition and measured after 25 min by Coomassie blue staining based SDS-PAGE analysis.
Assay [5] is described as follows: Inhibition of recombinant human SNEP1 Q597A mutant (419 to 644 residues) expressed in Escherichia coli (DE3) cells using RanGAP-SUMO2 substrate preincubated for 10 mins followed by substrate addition and measured after 25 min by Coomassie blue staining based SDS-PAGE analysis.
For assay [6], the target named is T1, Sentrin-specific protease 5 (Homo sapiens, UniProt Q96HI0).
T1 sequence (Q96HI0 whole entry): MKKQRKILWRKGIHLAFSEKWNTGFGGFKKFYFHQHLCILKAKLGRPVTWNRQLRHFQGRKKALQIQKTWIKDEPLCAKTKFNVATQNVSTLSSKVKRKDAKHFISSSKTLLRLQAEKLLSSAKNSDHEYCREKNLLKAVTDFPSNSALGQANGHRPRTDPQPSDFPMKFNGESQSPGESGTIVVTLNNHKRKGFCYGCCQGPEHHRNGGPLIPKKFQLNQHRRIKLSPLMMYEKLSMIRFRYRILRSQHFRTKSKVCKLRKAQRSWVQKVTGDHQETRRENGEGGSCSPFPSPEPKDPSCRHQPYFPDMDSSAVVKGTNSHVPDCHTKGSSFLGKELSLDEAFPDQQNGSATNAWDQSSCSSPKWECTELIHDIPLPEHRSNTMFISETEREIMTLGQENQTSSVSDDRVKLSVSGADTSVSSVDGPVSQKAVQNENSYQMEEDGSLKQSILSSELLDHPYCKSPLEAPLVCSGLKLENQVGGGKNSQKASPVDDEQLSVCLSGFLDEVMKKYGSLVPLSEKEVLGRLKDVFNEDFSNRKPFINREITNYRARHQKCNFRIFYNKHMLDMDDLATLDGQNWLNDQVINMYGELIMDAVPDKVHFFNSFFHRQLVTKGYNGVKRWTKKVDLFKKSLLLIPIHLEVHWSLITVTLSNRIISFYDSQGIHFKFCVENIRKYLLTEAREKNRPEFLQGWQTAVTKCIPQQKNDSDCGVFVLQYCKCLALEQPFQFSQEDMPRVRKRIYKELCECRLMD
In words: Inhibition of recombinant human SNEP5 (567 to 755 residues) expressed in Escherichia coli (DE3) cells using RanGAP-SUMO2 substrate preincubated for 10 mins followed by substrate addition and measured after 25 min by Coomassie blue staining based SDS-PAGE analysis.

The target of assay [7] is T2, Sentrin-specific protease 1 (Homo sapiens, UniProt Q9P0U3).
T2 sequence (Q9P0U3 whole entry): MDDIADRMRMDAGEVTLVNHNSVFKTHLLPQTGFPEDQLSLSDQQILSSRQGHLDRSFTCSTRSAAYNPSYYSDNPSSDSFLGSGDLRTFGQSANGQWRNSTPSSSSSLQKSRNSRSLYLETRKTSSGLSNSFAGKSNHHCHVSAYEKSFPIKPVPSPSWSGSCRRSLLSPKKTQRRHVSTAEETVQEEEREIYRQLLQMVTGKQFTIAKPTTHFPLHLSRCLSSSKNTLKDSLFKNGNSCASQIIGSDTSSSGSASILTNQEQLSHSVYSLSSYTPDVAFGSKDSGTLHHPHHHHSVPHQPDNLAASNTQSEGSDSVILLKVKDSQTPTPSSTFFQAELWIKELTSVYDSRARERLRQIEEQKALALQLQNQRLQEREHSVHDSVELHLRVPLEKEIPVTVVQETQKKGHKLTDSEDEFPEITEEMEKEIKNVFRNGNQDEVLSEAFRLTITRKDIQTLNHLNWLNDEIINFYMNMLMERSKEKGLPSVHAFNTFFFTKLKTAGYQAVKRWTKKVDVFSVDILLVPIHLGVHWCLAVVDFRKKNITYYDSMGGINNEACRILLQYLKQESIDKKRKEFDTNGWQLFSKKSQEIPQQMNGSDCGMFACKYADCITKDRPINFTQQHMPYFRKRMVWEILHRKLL
Put plainly: Inhibition of recombinant human SNEP1 (419 to 644 residues) expressed in Escherichia coli (DE3) cells using RanGAP-SUMO2 substrate preincubated for 10 mins followed by substrate addition and measured after 25 min by Coomassie blue staining based SDS-PAGE analysis.

The target in assay [8] is T3, Sentrin-specific protease 2 (Homo sapiens, UniProt Q9HC62).
T3 sequence (Q9HC62 whole entry): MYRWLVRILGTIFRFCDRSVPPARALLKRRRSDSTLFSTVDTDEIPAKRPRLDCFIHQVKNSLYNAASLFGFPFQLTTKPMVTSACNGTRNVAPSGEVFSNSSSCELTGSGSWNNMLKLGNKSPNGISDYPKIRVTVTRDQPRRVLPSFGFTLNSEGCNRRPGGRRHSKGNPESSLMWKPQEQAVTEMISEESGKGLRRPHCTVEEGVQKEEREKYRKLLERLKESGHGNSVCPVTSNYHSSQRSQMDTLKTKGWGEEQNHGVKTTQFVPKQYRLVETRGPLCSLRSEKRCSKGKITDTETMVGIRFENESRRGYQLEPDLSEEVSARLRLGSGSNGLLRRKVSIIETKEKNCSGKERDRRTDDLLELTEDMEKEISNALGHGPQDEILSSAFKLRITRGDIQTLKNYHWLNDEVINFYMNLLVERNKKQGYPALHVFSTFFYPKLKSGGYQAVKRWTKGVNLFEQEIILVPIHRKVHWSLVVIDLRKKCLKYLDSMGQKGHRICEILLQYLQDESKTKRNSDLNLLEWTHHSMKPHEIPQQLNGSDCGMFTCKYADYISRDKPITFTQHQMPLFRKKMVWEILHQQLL
Put plainly: Inhibition of recombinant human SNEP2 (365 to 589 residues) expressed in Escherichia coli (DE3) cells using RanGAP-SUMO2 substrate preincubated for 10 mins followed by substrate addition and measured after 25 min by Coomassie blue staining based SDS-PAGE analysis.

pIC50: −log10 of the molar value.

One may read the pIC50 as −log10 of the IC50, conventionally taken in molar units. In the case of `CCOC(=O)CNc1ccc2sc(C(=O)NCc3cccc(NC(=O)c4cccs4)c3)c(OCc3ccccc3)c2c1`, the pIC50 is 4.67 in assay [1]; 5.23 in assay [2]; 4.39 in assay [3]; 5.47 in assay [4]; 4.65 in assay [5].
With `CC(=O)Nc1cccc(CNC(=O)c2sc3ccccc3c2OCc2ccccc2)c1`, the pIC50 is 4.54 in assay [6], 4.60 in assay [7] and 4.28 in assay [8].
As to `Nc1ccc(C(=O)Nc2cccc(CNC(=O)c3sc4ccccc4c3OCc3ccccc3)c2)cc1`, in assay [6], the pIC50 is under 4.00.

The values are drawn from ChEMBL document CHEMBL4765398, “Benzothiophene-2-carboxamide derivatives as SENPs inhibitors with selectivity within SENPs family” (Eur J Med Chem, 2020).
